Data: US12194015B2, “Composition comprising ferrous amino acid particles and method for treating or ameliorating pancreas-related disease using the same” (priority 2018, dated 2025)
“And” between values parts separate entries of the source, which are not always exact repeats. Equal entries are not always repeated.

Legend:
[1] = Jaundice observation and blood tests T-bilirubin, GOT, GPT (Example 7); type: in vivo; parameters: dose or concentration left out as unconfirmed; details: 13th week after treatment
Experimental: The luminescence and fluorescence-labelled cells were implanted into pancreas of experimental mice (40 NOD-SCID experimental mice purchased from BioLASCO Taiwan Co., Ltd) with a cell number of 5×10^5 by surgery. 10 days after the cell implantation to the pancreas of the animals, the baseline data was measured by noninvasive in vivo imaging system (IVIS). After the baseline IVIS data were obtained, all the experimental mice were randomly and evenly assigned into groups [the value of mean±3 s.d. of measured IVIS data was calculated, and the animals having an IVIS data within the standard range were assigned into control group (physiological saline was used), the group of the composition of the present invention (24 mg/kg the composition obtained for preparation example 1 was administrated daily), gemcitabine group (100 mg/kg gemcitabine was administered by intravenous injection twice per week continuously for three weeks and discontinuing gemcitabine on the fourth week. These four weeks were named as gemcitabine cycle. […] The survival period of each mouse during the experiment was recorded. […]

[2] = Jaundice observation and blood tests T-bilirubin, GOT/AST, GPT/ALT (Example 6); type: in vivo, NOD-SCID mice
Experimental: The luminescence and fluorescence-labelled cells were implanted into pancreas of experimental mice (50 NOD-SCID experimental mice purchased from BioLASCO Taiwan Co., Ltd) with a cell number of 5×10^5 by surgery. 10 days after the cell implantation to the pancreas of the animals, the baseline data was measured by noninvasive in vivo imaging system (IVIS). After the baseline IVIS data were obtained, all the experimental mice were randomly and evenly assigned into groups [the value of mean±3 s.d. of measured IVIS data was calculated, and the animals having an IVIS data within the standard range were assigned into control group (physiological saline was used), the group of the composition of the present invention obtained from preparation example (24 mg/kg the composition obtained for preparation example 1 was administrated directly into the stomachs of the mice through feeding tubes once per day), gemcitabine group (100 mg/kg gemcitabine was administered by intravenous injection twice per week), and combination group (24 mg/kg the composition of the present invention was administered daily and 100 mg/kg gemcitabine was administered twice per week), followed by the administration. […] The blood tests for total bilirubin (T-bilirubin), glutamate oxaloacetate transaminase/aspartate aminotransferase (GOT/AST), and glutamate pyruvate transaminase/alanine transaminase (GPT/ALT) of all experimental animals on the 9th week were conducted and the mice were observed whether the jaundice occurred or not by the naked eyes. The jaundice signs of mice which could be observed by naked eyes included: emaciation, swollen gall, yellow dark skin, and abnormal yellow limbs and tail.

[3] = test system: orthotopic xenograft pancreatic cancer (PANC-1); experiment: Therapeutic effect (I) with gemcitabine: tumor growth (IVIS) and survival (Example 6); type: in vivo, NOD-SCID mice
Experimental: The human pancreatic adenocarcinoma cell line PANC-1 obtained from preparation example 2 was cloned and labelled with luminescence and fluorescence vector. The luminescence and fluorescence-labelled cells were implanted into pancreas of experimental mice (50 NOD-SCID experimental mice purchased from BioLASCO Taiwan Co., Ltd) with a cell number of 5×10^5 by surgery. 10 days after the cell implantation to the pancreas of the animals, the baseline data was measured by noninvasive in vivo imaging system (IVIS). After the baseline IVIS data were obtained, all the experimental mice were randomly and evenly assigned into groups [the value of mean±3 s.d. of measured IVIS data was calculated, and the animals having an IVIS data within the standard range were assigned into control group (physiological saline was used), the group of the composition of the present invention obtained from preparation example (24 mg/kg the composition obtained for preparation example 1 was administrated directly into the stomachs of the mice through feeding tubes once per day), gemcitabine group (100 mg/kg gemcitabine was administered by intravenous injection twice per week), and combination group (24 mg/kg the composition of the present invention was administered daily and 100 mg/kg gemcitabine was administered twice per week), followed by the administration. The dosage and dosage regimen of the composition of the present invention were decided based on the results of example 4 that there were no significant differences between the high-dose group and the low-dose group, so the dosage of 24 mg/kg was chosen for this experiment. The dosage and the dosage regimen of first-line drug for the pancreatic cancer were decided in accordance with two journal articles: Cook, Natalie, et al. “Gamma secretase inhibition promotes hypoxic necrosis in mouse pancreatic ductal adenocarcinoma.” Journal of Experimental Medicine 209.3 (2012): 437-444. and Olive, Kenneth P., et al. “Inhibition of Hedgehog signaling enhances delivery of chemotherapy in a mouse model of pancreatic cancer.” Science (2009), so that the gemcitabine was administered at the dosage of 100 mg/kg twice per week for the experiment. The time points of IVIS data measurement were: Baseline 10 Day (Baseline 10D), the 17th day (the 7th day after administration), the 24th day (14 days after treatment), the 31st day (21 days after treatment), and the 38th day (28 days after treatment) of the experiment. […] The survival period of each mouse during the experiment was recorded.

[4] = test system: orthotopic xenograft pancreatic cancer (PANC-1); experiment: Therapeutic effect (II) with gemcitabine cycles: tumor growth (IVIS) and survival (Example 7); type: in vivo, NOD-SCID mice; details: for inhibition of the tumor growth of the orthotopic xenograft pancreatic cancer compared to control: composition 24 mg/kg daily, gemcitabine 100 mg/kg in gemcitabine cycles
Experimental: The human pancreatic adenocarcinoma cell line PANC-1 obtained from preparation example 2 was cloned and labelled with luminescence and fluorescence vector. The luminescence and fluorescence-labelled cells were implanted into pancreas of experimental mice (40 NOD-SCID experimental mice purchased from BioLASCO Taiwan Co., Ltd) with a cell number of 5×10^5 by surgery. 10 days after the cell implantation to the pancreas of the animals, the baseline data was measured by noninvasive in vivo imaging system (IVIS). After the baseline IVIS data were obtained, all the experimental mice were randomly and evenly assigned into groups [the value of mean±3 s.d. of measured IVIS data was calculated, and the animals having an IVIS data within the standard range were assigned into control group (physiological saline was used), the group of the composition of the present invention (24 mg/kg the composition obtained for preparation example 1 was administrated daily), gemcitabine group (100 mg/kg gemcitabine was administered by intravenous injection twice per week continuously for three weeks and discontinuing gemcitabine on the fourth week. These four weeks were named as gemcitabine cycle. There were three gemcitabine cycles in the present example.), and the combination group (100 mg/kg gemcitabine was administered by intravenous injection twice per week continuously for three weeks, and discontinuing gemcitabine on the fourth week, and the 24 mg/kg composition of the present invention obtained from the preparation example 1 were administered daily). […] The time points of IVIS data measurement of this example were: Baseline 10 Day (Baseline 10D), the 17th day (7 days after treatment), the 24th day (14 days after treatment), the 31st day (21 days after treatment), the 38th day (28 days after treatment), the 45th day (35 days after treatment), and the 59th day (49 days after treatment) of experiment. The blood of the experimental mice was collected and the T-bilirubin, GOT, and GPT in blood were examined to monitor the reason causing the jaundice on the fixed time points [Baseline 10 Day (Baseline 10D), the 4th week after treatment, the 8th week after treatment, the 10th week after treatment, and the 12th week after treatment,]. Whether the jaundice occurred or not was also observed by naked eyes. The jaundice signs of mice which could be observed by naked eyes included: emaciation, swollen gall, yellow dark skin, and abnormal yellow limbs and tail. The survival period of each mouse during the experiment was recorded.

Nc1ccn([C@@H]2O[C@H](CO)[C@@H](O)C2(F)F)c(=O)n1 [gemcitabine]
number of mice with T-bilirubin higher than the standard [1]: one
jaundice ([2]; 9th week after treatment, gemcitabine continuously twice per week): jaundice was found
T-bilirubin in the blood ([2]; 9 weeks after treatment, versus groups not treated with gemcitabine, FIG. 13A): significantly higher
GOT in the blood ([2]; 9 weeks after treatment, versus groups not treated with gemcitabine, FIG. 13B): significantly higher
GPT in the blood ([2]; 9 weeks after treatment, versus groups not treated with gemcitabine, FIG. 13C): significantly higher
effect of inhibiting the tumor growth of the pancreatic cancer compared to control ([3]; 28 days after treatment, composition 24 mg/kg daily, gemcitabine 100 mg/kg i.v. twice per week): around 50%
day of the experiment on which the first dead mouse was found ([3]; Example 6, control 60th day): 77 days
day of the experiment on which the last dead mouse was found ([3]; Example 6, control 91st day): 100 days
average survival period of the whole group ([3]; Example 6, control 80.1 days): 89.4 days
inhibition of the tumor growth of the orthotopic xenograft pancreatic cancer compared to control ([4]; 28th day after treatment): 50%-60%
inhibition of the tumor growth of the orthotopic xenograft pancreatic cancer compared to control ([4]; 49th day after treatment): 50%-60%
Average survival period ([4]; Example 7, control group 89.4): 114.7 days
Survival period of the experimental mice ([4]; individual mice, 7 per group, Example 7): 109 Days (2×) and 113 Days and 119 Days and 140 Days and 105 Days and 108 Days
